The target of one assay is T1, mouse vas deferens (Mus musculus, UniProt P32300).
T1 construct: Each of several samples of mouse vas deferens (m.v.d.); tissue A-Lab, Solna, Sweden (mice); host or cells: vas deferens of male NMRI mice
Nature of the assay: Mouse vas deferens bioassay, single dose method, DALE agonist (Example 12). In kind it is cell-based. The following applies: for inhibitory effect on the contractions (in words) / duration / reversibility of antagonism in the m.v.d. (in words): m.v.d.; for opioid antagonism, m.v.d.: m.v.d. bioassay; for inhibition of DALE-induced contractions of the m.v.d.: 25-1000 nM, all doses tested; for Relative potency, bioassay M.V.D.: Ke of naloxone in m.v.d. taken to be 1; for t1/2 (half-time of recovery), mouse vas deferens: geometric mean (95% confidence limits); for reversal of antagonism by naloxone, m.v.d.: naloxone up to 10,000 nM; for M.V.D./G.P.I. (relative affinity): ratio of m.v.d. to G.p.i. relative potency.

Assay [1] addresses T2, guinea-pig ileum myenteric plexus-longitudinal muscle (Cavia porcellus, UniProt A0ACM8Q262).
T2 construct: normorphine as agonist
Nature of the assay: Guinea-pig ileum myenteric plexus-longitudinal muscle bioassay, single dose method, normorphine agonist (Example 12). Type of assay: cell-based. To be noted: for opioid antagonism, G.p.i.: G.p.i. bioassay; for Relative potency, bioassay G.P.I.: Ke of naloxone in m.v.d. taken to be 1; for reversal of antagonism by naloxone, G.p.i.: addition of naloxone; for duration of action in the G.p.i. (in words): compared with parent opioids; for t1/2 (half-time of recovery), guinea-pig M. plexus / Kb: geometric mean (95% confidence limits); for Kb: agonist normorphine, read-out: Ke (dissociation constant), guinea-pig M. plexus.

Assay [2] deals with T3, delta-type opioid binding sites (Rattus norvegicus, UniProt P33533).
T3 construct: Rat brain membranes were prepared; from tissue; host or cells: rat brain membranes
Nature of the assay: Delta-site binding, 1 nM [3H]-DALE with 30 nM DAGO, rat brain membranes. To be noted: for Relative potency, binding assay Delta: Ki of naloxone in inhibiting 3H-DALE taken to be 1; for Relative affinity, delta: Ki^-1 x 100 / sum of Ki^-1 values; for delta affinity / selectivity (in words): delta-type opioid receptors. The procedure:
(§1) Rat brain membranes were prepared and binding assays performed as previously described by Neil, A. in "Detection and characterization of four opioid binding sites in the mouse brain," Acta Pharmacol. Tox. 56: 108-116 (1985).

In assay [3] the target is T4, kappa-type opioid binding sites (Rattus norvegicus, UniProt P34975).
T4 construct: Rat brain membranes were prepared; from tissue; host or cells: rat brain membranes
As to the kind of experiment: Kappa-site binding, 1 nM [3H]-(±)-EKC with 200 nM DAGO and DADL, rat brain membranes. To be noted: for Relative potency, binding assay Kappa: Ki of naloxone in inhibiting 3H-DALE taken to be 1; for Relative affinity, kappa: Ki^-1 x 100 / sum of Ki^-1 values. As for the experimental part: as §1

The target in assay [4] is T5, mu-type opioid binding sites (Rattus norvegicus, UniProt P33535).
T5 construct: Rat brain membranes were prepared; from tissue; host or cells: rat brain membranes
Nature of the assay: Mu-site binding, 0.2 nM [3H]-dihydromorphine, rat brain membranes. The following applies: for Relative potency, binding assay Mu: Ki of naloxone in inhibiting 3H-DALE taken to be 1; for Relative affinity, mu: Ki^-1 x 100 / sum of Ki^-1 values; for Ki: [3H]-DHM, read-out: Ki, mu (inhibition of binding). As for the experimental part:
as §1

The test system of assay [5] is guinea pig ileum longitudinal muscle preparation. Nature of the assay: Electrically stimulated guinea pig ileum longitudinal muscle (Example 5). Type of assay: cell-based. The following applies: 25 microliters; 10^-7 M. The procedure: 6-FN was tested for activity on an electrically stimulated guinea pig ileum longitudinal muscle preparation. In this test, a specimen of guinea pig ileum was stretched between two wires in a nutrient solution (2.5 mil.) and stimulated supramaximally at 0.1 Hz. In the absence of opioid agonists and antagonists electrical stimulation of the muscle results in contraction.

For assay [6], the target named is T6, opioid receptors in rat brain membrane preparations (Rattus norvegicus, UniProt P33535). Nature of the assay: 3H-DHM displacement from rat brain membranes (Example 4 method). To be noted: for Hill coefficient / binding activity in synaptosomal membranes (in words): 3H-DHM displacement; for binding activity in synaptosomal membranes (in words): rat brain synaptosomal membranes.
Procedure: (§2) The data was analyzed, using the program LIGAND of Munson and Rodbard.

For assay [7], the target named is T6, opioid receptors in rat brain membrane preparations.
Procedure: as §2
The target is the same in assay [8]. As to the kind of experiment: biochemical.
Procedure: as §2

Consider 12 molecules from patent publication US4910152A, “Method for binding opioid receptors” (priority 1986, dated 1990).

Each structure is given as a SMILES string. “Also recorded” adds a separate entry of the source. Read-outs that look alike come from different tables or passages of the source.

T2 sequence (A0ACM8Q262 1-400): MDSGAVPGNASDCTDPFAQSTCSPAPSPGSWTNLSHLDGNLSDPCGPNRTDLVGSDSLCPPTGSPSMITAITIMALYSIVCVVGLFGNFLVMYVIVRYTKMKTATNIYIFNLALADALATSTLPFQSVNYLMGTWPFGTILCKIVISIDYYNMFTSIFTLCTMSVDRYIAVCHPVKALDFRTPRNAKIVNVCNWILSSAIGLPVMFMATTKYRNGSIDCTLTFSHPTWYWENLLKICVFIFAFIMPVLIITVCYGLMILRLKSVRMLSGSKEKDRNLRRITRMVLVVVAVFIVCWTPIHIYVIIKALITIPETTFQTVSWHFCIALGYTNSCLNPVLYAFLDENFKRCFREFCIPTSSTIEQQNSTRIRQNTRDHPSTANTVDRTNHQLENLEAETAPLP
T4 sequence (P34975 whole entry): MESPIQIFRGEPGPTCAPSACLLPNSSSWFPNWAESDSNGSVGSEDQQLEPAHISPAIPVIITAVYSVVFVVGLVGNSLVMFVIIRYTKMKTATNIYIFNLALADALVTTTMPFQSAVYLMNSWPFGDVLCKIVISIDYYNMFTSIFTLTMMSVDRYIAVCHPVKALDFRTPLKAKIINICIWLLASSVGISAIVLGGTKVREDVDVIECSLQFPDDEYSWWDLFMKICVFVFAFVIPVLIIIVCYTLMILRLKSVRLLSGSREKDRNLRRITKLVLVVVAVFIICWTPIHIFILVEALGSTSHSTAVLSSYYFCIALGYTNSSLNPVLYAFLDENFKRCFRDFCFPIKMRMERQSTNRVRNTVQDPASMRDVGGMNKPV
T1 sequence (P32300 whole entry): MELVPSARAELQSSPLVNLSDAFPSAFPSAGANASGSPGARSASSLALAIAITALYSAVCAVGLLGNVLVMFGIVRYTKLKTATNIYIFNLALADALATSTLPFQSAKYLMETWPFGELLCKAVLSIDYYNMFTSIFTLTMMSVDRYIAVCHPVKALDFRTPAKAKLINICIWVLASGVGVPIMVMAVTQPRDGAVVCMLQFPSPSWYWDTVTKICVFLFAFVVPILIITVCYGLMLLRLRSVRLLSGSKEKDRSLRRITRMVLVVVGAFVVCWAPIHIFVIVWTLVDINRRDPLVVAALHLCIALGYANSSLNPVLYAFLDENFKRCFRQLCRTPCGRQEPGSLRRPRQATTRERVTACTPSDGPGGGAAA
T3 sequence (P33533 whole entry): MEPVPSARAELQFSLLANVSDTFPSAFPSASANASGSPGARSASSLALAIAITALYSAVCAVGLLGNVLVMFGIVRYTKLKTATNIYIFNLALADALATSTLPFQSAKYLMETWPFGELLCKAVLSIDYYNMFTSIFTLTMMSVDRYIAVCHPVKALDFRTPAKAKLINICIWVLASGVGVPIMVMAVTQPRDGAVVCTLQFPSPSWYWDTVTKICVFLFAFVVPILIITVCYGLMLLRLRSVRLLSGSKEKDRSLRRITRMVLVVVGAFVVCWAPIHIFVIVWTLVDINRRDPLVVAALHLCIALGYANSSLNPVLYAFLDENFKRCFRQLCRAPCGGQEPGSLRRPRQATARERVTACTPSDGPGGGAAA
T6 sequence (P33535 whole entry): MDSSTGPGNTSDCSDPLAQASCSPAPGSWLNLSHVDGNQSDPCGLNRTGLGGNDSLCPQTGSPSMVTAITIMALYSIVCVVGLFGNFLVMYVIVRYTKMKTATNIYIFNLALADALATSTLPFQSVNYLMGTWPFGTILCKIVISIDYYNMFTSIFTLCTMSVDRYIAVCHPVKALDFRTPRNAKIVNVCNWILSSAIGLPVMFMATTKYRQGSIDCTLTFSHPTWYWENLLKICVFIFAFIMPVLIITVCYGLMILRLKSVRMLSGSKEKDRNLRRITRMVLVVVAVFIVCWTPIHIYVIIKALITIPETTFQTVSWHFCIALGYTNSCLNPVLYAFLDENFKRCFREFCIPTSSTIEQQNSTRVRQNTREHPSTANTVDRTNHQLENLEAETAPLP
T5 sequence (P33535 whole entry): as above

As to `C[C@]12CC[C@@H]3c4ccc(O)cc4CC[C@H]3[C@@H]1CCC2=NN` [EH, estrone hydrazone, reference compound], on mouse vas deferens, the “inhibitory effect on the contractions (in words)” value (“inhibitory effect” below) was “inhibitory effects of magnitudes similar to NAL-E and NAL-AD-NAL”; the “opioid antagonism, m.v.d.” value was “none of the steroids, EH, ADDH or 17-beta-estradiol, showed opioid antagonism”. In addition, the “opioid antagonism, G.p.i.” value in [1] was “none of the steroids, EH, ADDH or 17-beta-estradiol, showed opioid antagonism”.

In general, Ki refers to a measure of affinity in units of concentration, obtained from inhibition or displacement. Consider `C=CCN1CC[C@]23c4c5ccc(O)c4O[C@H]2C(=NN=C2CC[C@H]4[C@@H]6CCc7cc(O)ccc7[C@H]6CC[C@]24C)CC[C@@]3(O)[C@H]1C5` [NAL-E], for which, in assay [2], the “Relative potency, binding assay Delta” value amounted to 7.4; the “Relative affinity, delta” value is listed as 70; the “delta affinity / selectivity (in words)” value is “delta selective; also recorded: long lasting and selectively and preferentially bind delta-type opioid receptors”. Also, in assay [2] (listed as Nal-E), the “delta affinity / selectivity (in words)” value is “far more delta selective than naloxone”. For the same molecule, at mouse vas deferens, the Kb was 5.8 nM; the “inhibition of DALE-induced contractions of the m.v.d.” value is on record as 20-50%; the “Relative potency, bioassay M.V.D.” value is reported as 8.8; the “t1/2 (half-time of recovery), mouse vas deferens” value was over 1000 min. Besides, at mouse vas deferens, the “duration / reversibility of antagonism in the m.v.d. (in words)” value is “very longlasting; also recorded: very long lasting effects”; the “reversal of antagonism by naloxone, m.v.d.” value is on record as “not reversed by addition of naloxone”; the “M.V.D./G.P.I. (relative affinity)” value was 12.0. Besides, the “antagonist potency versus naloxone, m.v.d.” value on mouse vas deferens (antagonism of DALE effects) is listed as “nine-fold more potent than naloxone”. Also, at mouse vas deferens (compared with naloxone, delta-rich tissue), the “selectivity in antagonizing D-Ala2-Leu5-enkephalin effects (in words)” value was “far more selective than naloxone”. The “duration / reversibility of antagonism in the m.v.d. (in words)” value on mouse vas deferens (listed as NALE) was “almost irreversible in some observations”. For the same molecule, in assay [3], the “Relative potency, binding assay Kappa” value is listed as 4.4 and the “Relative affinity, kappa” value is 14. Moreover, in assay [4], the “Relative potency, binding assay Mu” value is listed as 1.7; the “Relative affinity, mu” value stood at 16; the inhibition constant Ki was 17 nM. Further, in [1], the “Relative potency, bioassay G.P.I.” value came to 0.74; the “reversal of antagonism by naloxone, G.p.i.” value is listed as “Nor were the NAL-E or NAL-AD-NAL antagonisms in the G.p.i. reversed by naloxone”; the “duration of action in the G.p.i. (in words)” value was “somewhat longer acting than their parent opioids”; the “t1/2 (half-time of recovery), guinea-pig M. plexus” value worked out at 27 min. Also, the Kb in assay [1] is 69 nM. Moreover, the “selectivity in antagonizing normorphine (in words)” value in [1] (compared with naloxone, mu-rich tissue) is “far less selective”. Moreover, the “fold less potent than naloxone, G.p.i.” value in [1] (less potent than naloxone) was found to be 22 fold.

As for `Oc1ccc2c3c1O[C@H]1[C@@H](O)C=C[C@H]4[C@@H](C2)NCC[C@@]341` [normorphine, reference compound], the “inhibition of contraction of the muscle (agonist effect)” value in [5] was “substantially inhibited contraction of the muscle”.

In the case of `O=C1OC2(c3ccc(O)cc3Oc3cc(O)ccc32)c2ccc(NC(=S)NN=C(c3ccccc3)c3ccccc3)cc21` [6-FB, 1-(N)-fluoresceinyl benzophenone thiosemicarbazone, reference compound], in [6] (10^-6 M), the “displacement of 3H-DHM (result in words)” value is “inactive”.

One may read the Kd as the constant that tells how readily two partners part at equilibrium. Regarding `C=CCN1CC[C@]23c4c5ccc(O)c4O[C@H]2C(NC(=S)Nc2ccc4c(c2)C(=O)OC42c4ccc(O)cc4Oc4cc(O)ccc42)CC[C@@]3(O)[C@H]1C5` (single isomer, unassigned) [FAN, N-(1-N-allyl-14-hydroxynordihydro-6δ-morphinanyl)-N'-fluorosceinyl thiourea], the Kd in [7] came out at 18.9 nM.

In the case of `C[C@]12CCC(=NN)C=C1CC[C@@H]1[C@@H]2CC[C@]2(C)C(=NN)CC[C@@H]12` [ADDH, Δ^4 androstenedione-(3,17)-dihydrazone, reference compound], at mouse vas deferens, the “inhibitory effect” value was “inhibitory effects of magnitudes similar to NAL-E and NAL-AD-NAL”; the “opioid antagonism, m.v.d.” value is recorded as “none of the steroids, EH, ADDH or 17-beta-estradiol, showed opioid antagonism”. Moreover, in assay [1], the “opioid antagonism, G.p.i.” value is recorded as “none of the steroids, EH, ADDH or 17-beta-estradiol, showed opioid antagonism”.

Broadly, the Hill coefficient is a measure of the steepness of the concentration-response curve. As to `O=C1OC2(c3ccc(O)cc3Oc3cc(O)ccc32)c2ccc(NC(=S)NN=C3CC[C@@]4(O)[C@H]5Cc6ccc(O)c7c6[C@@]4(CCN5CC4CC4)[C@H]3O7)cc21` [6-FNX, 1-(N)-fluoresceinyl naltrexone thiosemicarbazone], in assay [6], the Hill coefficient stood at 0.675 and the “binding activity in synaptosomal membranes (in words)” value (shortened to “binding activity”) was “sufficient binding activity”. The same molecule showed a Kd in assay [8] of 2.6 nM.

With `C[C@]12CC[C@@H]3c4ccc(O)cc4CC[C@H]3[C@@H]1CC[C@@H]2O` [17-beta-estradiol, reference compound], on mouse vas deferens, the “inhibitory effect” value is recorded as “no inhibitory effect on the contractions” and the “opioid antagonism, m.v.d.” value is reported as “none of the steroids, EH, ADDH or 17-beta-estradiol, showed opioid antagonism”. Further, the “opioid antagonism, G.p.i.” value in [1] is given as “none of the steroids, EH, ADDH or 17-beta-estradiol, showed opioid antagonism”.

In turn, `C=CCN1CC[C@]23c4c5ccc(O)c4O[C@H]2C(=NNC(=S)Nc2ccc(-c4c6ccc(=[N+](C)C)cc-6oc6cc(N(C)C)ccc46)c(C(=O)[O-])c2)CC[C@@]3(O)[C@H]1C5` [6-RN, 1-(N)-tetramethylrhodaminyl-B-naloxone Thiosemicarbazone] displayed a Kd in [7] of 5.3 nM. For the same molecule, in [6], the Hill coefficient is recorded as 1.09 and the “binding activity” value was “sufficient binding activity”. The IC50 in assay [6] (read-out: IC50 (concentration necessary for 50% displacement of 3H-DHM), rat brain synaptosomal plasma membranes, determined graphically) stood at 12 nM.

As to `C=CCN1CC[C@]23c4c5ccc(O)c4O[C@H]2C(=O)CC[C@@]3(O)[C@H]1C5` [naloxone, reference compound], in [1], the “t1/2 (half-time of recovery), guinea-pig M. plexus” value turned out to be 15 min.

`CN1CC[C@]23c4c5ccc(O)c4O[C@H]2C(=NNC(=S)Nc2ccc4c(c2)C(=O)OC42c4ccc(O)cc4Oc4cc(O)ccc42)CC[C@@]3(O)[C@H]1C5` [6-FO, 1-(N)-fluoresceinyl oxymorphone thiosemicarbazone]: binding in assay [7] was put at a Kd of 12.8 nM. For the same molecule, in assay [6], the Hill coefficient is listed as 0.989 and the “binding activity” value is reported as “sufficient binding activity”.

For `C=CCN1CC[C@]23c4c5ccc(O)c4O[C@H]2C(=NN=C2C=C4CC[C@@H]6[C@H](CC[C@]7(C)C(=NN=C8CC[C@@]9(O)[C@H]%10Cc%11ccc(O)c%12c%11[C@@]9(CCN%10CC=C)[C@H]8O%12)CC[C@@H]67)[C@@]4(C)CC2)CC[C@@]3(O)[C@H]1C5` [NAL-AD-NAL], in [2], the “Relative potency, binding assay Delta” value is 3.4; the “Relative affinity, delta” value was 5; the “delta affinity / selectivity (in words)” value is recorded as “not to show a high delta affinity”. Besides, at mouse vas deferens, the Kb came to 37 nM; the “inhibition of DALE-induced contractions of the m.v.d.” value is 20-50%; the “Relative potency, bioassay M.V.D.” value is 1.4; the “t1/2 (half-time of recovery), mouse vas deferens” value is reported as 19 (14-24) min. Moreover, on mouse vas deferens, the “reversal of antagonism by naloxone, m.v.d.” value was “not reversed by addition of naloxone” and the “M.V.D./G.P.I. (relative affinity)” value worked out at 0.16. In [3], the “Relative potency, binding assay Kappa” value came to 0.19 and the “Relative affinity, kappa” value is recorded as 7. Also, in assay [4], the “Relative potency, binding assay Mu” value stood at 18.0; the “Relative affinity, mu” value is reported as 78; the inhibition constant (Ki) worked out at 1.6 nM. For the same molecule, the “mu receptor affinity (in words)” value in [4] (compared with naloxone) is “mu receptor affinity on the order of naloxone”. For the same molecule, in [1], the “Relative potency, bioassay G.P.I.” value is 8.9; the “reversal of antagonism by naloxone, G.p.i.” value is given as “Nor were the NAL-E or NAL-AD-NAL antagonisms in the G.p.i. reversed by naloxone”; the “duration of action in the G.p.i. (in words)” value is “somewhat longer acting than their parent opioids”; the “t1/2 (half-time of recovery), guinea-pig M. plexus” value is on record as 34 min. Also, in assay [1], the Kb turned out to be 5.7 nM.
